Earlier results on 1 compound are cited in patent publication US20120003325A1, “USE OF HELIUM-OXYGEN GAS MIXTURES FOR TREATING PULMONARY ARTERIAL HYPERTENSION” (BAYER SCHERING PHARMA AKTIENGESELLSCHAFT, priority 2008, published 2012).

Structures are written as SMILES.

The conditions of the series: oil-water mixture.

Take `[He]` [helium]: the “solubility relative to the solubility of oxygen or nitrogen” value was 30%.
